In patent US9708267B2, “Activators of human pyruvate kinase” (The United States of America, as represented by the …, priority 2010, dated 2017):
Where two headings read alike, the source gives them in different places.

Tests used:
Format in all cases: biochemical
[1] = biological target: hPK, M2 (Homo sapiens, UniProt P14618); experiment: luminescent pyruvate kinase-luciferase coupled assay (qHTS); details: for AC50: 0.1 mM ADP, 0.5 mM PEP; for Emax: maximum response (activation), read-out: Max. Res.
Experimental: AC50 values were determined utilizing the luminescent pyruvate kinase-luciferase coupled assay (Inglese, J. et al, Quantitative high-throughput screening: a titration-based approach that efficiently identifies biological activities in large chemical libraries. Proc. Natl. Acad. Sci. U.S.A. 2006, 103, 11473-11478).
Luminescent Pyruvate Kinase-Luciferase Coupled Assay.
(§1) Production of a luminescent signal based on the generation of ATP by pyruvate kinase was determined by using the ATP-dependent enzyme firefly luciferase. Three μL of substrate mix (at r.t.) in assay buffer (50 mM imidazole pH 7.2, 50 mM KCl, 7 mM MgCl2, 0.01% tween 20, 0.05% BSA) was dispensed into Kalypsys (San Diego, Calif., USA) white solid bottom 1,536 well microtiter plates using a bottle-valve solenoid-based dispenser (Kalypsys). The final concentrations of substrates in the assay were 0.1 mM ADP and 0.5 mM PEP. Twenty-three nL of compound in DMSO were delivered with a 1,536-pin array tool, and 1 μL of enzyme mix in assay buffer (final concentration, 0.1 nM pyruvate kinase, 50 mM imidazole pH 7.2, 0.05% BSA, 4° C.) was added. Microtiter plates were incubated at r.t. for 1 hour and 2 uL of luciferase detection mix (Kinase-Glo from Promega, Madison, Wis., USA) at 4° C. protected from light, was added and luminescence was read with a ViewLux (Perkin Elmer, Waltham, Mass., USA) using a 2 second exposure/plate (with 2× binning). The final concentration of DMSO was 0.5% and found not to affect the assay signal.
Data was normalized for AC50 values to control columns containing uninhibited enzyme (n), and AC100 inhibition (i) according the following equation: Activation (%)=[(c−n)/(n−i)]*100 where c=compound, n=DMSO neutral, i=no enzyme control. A % activity of 100% is approximately a 2-fold increase over basal assay signal (% Activation by FBP was variable but averaged 100%). Monitoring of activation was accomplished using enzyme at 3× the final concentration.
All compounds were screened using a qHTS approach, where compounds are assayed using at least seven concentrations to generate concentration-response curves for every compounds. Briefly, qHTS uses an inter-plate dilution method where the first plate contains the highest concentration of a set of compounds in DMSO, while subsequent plates contain the same compounds in the same well locations, but at successive lower concentrations. Using the protocol outlined above, the rate was calculated as a plate throughput of 18 plates/hr or approximately 7 samples/sec on the Kalypsys robotic system which means that a 7 point CRC was obtained every second on the robotic system.

[2] = biological target: PKL (Homo sapiens, UniProt P30613); experiment: luminescent pyruvate kinase-luciferase coupled assay, PKL isoform; details: same assay system as for PKM2
Experimental: as §1
(§2) The same assay system was utilized to examine the activity of compound 4 and all related analogs versus PKL, PKM1 and PKR pyruvate kinase isoforms. No activity for any of the compounds were found against PKL, PKM1, or PKR.

[3] = biological target: PKM1 (Homo sapiens, UniProt P14618); experiment: luminescent pyruvate kinase-luciferase coupled assay, PKM1 isoform; details: same assay system as for PKM2
Experimental: as §1, §2

[4] = biological target: PKR (Homo sapiens, UniProt P30613); experiment: luminescent pyruvate kinase-luciferase coupled assay, PKR isoform; details: same assay system as for PKM2
Experimental: as §1, §2

Chain of hPK, M2 (P14618 whole entry): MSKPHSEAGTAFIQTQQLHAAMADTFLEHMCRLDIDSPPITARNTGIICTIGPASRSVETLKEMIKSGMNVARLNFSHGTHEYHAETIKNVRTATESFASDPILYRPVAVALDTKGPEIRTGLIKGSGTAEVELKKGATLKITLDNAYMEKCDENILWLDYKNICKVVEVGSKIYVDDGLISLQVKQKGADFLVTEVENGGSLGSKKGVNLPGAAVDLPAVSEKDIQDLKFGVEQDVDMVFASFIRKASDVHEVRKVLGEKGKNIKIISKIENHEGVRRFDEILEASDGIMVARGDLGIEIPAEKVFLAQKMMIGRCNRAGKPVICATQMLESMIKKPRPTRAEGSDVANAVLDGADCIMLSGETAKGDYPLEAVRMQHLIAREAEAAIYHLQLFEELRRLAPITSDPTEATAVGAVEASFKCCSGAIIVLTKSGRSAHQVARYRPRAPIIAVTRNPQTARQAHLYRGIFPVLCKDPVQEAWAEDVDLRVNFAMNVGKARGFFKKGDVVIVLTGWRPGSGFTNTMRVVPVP
Chain of PKL (P30613 1-543 isoform P30613-2): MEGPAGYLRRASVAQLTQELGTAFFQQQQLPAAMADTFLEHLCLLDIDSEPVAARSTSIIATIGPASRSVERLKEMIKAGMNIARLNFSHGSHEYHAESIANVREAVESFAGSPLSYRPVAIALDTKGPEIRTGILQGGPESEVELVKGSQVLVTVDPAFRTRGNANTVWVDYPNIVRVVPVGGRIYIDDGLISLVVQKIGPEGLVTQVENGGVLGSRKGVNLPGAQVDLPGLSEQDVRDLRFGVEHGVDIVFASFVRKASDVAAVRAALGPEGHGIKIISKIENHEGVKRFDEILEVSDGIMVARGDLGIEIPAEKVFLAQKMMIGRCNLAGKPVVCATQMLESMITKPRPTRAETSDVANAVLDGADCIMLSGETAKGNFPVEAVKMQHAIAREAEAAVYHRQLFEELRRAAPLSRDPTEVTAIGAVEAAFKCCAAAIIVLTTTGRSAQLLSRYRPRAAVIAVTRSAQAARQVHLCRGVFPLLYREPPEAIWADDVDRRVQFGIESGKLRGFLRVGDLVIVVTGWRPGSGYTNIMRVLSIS
Chain of PKR (P30613 whole entry, canonical isoform): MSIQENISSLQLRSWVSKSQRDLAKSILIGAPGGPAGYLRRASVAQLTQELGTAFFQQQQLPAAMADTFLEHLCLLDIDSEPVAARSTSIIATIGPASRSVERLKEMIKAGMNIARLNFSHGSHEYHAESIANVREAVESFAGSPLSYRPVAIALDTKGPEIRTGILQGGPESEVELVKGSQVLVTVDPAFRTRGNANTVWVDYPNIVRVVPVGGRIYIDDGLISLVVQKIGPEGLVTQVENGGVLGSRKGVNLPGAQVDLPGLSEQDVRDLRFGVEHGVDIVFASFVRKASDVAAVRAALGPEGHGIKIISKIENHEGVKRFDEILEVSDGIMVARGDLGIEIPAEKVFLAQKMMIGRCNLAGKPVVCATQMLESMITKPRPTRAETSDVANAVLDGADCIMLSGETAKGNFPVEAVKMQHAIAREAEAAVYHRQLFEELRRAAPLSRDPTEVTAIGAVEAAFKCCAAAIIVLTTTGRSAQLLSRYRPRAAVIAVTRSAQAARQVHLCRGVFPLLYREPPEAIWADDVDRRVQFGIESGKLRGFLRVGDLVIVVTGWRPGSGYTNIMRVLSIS
Chain of PKM1 (P14618 1-531 isoform P14618-2): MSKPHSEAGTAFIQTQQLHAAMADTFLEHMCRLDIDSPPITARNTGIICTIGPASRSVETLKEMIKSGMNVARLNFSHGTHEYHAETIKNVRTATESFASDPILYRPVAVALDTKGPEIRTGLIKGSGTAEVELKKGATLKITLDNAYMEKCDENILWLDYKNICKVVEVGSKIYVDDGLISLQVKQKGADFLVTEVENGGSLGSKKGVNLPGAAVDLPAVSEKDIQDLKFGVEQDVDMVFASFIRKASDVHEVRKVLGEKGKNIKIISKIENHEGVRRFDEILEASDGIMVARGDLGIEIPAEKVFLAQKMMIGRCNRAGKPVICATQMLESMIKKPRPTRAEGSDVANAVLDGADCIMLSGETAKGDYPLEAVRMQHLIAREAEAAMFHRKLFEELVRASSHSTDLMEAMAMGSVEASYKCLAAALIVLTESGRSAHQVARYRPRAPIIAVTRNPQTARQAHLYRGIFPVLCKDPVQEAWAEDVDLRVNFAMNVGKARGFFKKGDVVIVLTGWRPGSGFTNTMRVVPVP

SMILES | AC50 ([1]; Table 4, read-out: AC50) [µM] | Emax ([1]; Table 4) [%] | other results
Cc1ccc(NS(=O)(=O)c2ccc3c(c2)CCC(=O)N3)cc1C [Compound 4, N-(3,4-dimethylphenyl)-2-oxo-1,2,3,4-tetrahydroquinoline-6-sulfonamide] | – | – | AC50 ([1]; Table 1, mean of three replicate experiments, read-out: hPK, M2 AC50): 0.65 µM; activation at 57 µM ([1]; Table 1, % activation at 57 μM of compound, mean of three replicate experiments, read-out: hPK, M2 Max. Res.): 104%; hPK, M2 Max. Res. ([1]; Table 2, % activation at 57 μM of compound, mean of three replicate experiments): 104%; hPK, M2 Max. Res. ([1]; Table 3, % activation at 57 μM of compound, mean of three replicate experiments): 104%; activity against PKL [2]: No activity; activity against PKM1 [3]: No activity; activity against PKR [4]: No activity
Cc1ccc(NS(=O)(=O)c2cc3c(cc2NCC(C)(C)O)NC(=O)CC3)cc1C [Compound 64, N-(3,4-dimethylphenyl)-7-(2-hydroxy-2-methylpropylamino)-2-oxo-1,2,3,4-tetrahydroquinoline-6-sulfonamide] | 1.83 | 100 | –
Cc1ccc(NS(=O)(=O)c2cc3c(cc2NC(C)C)NC(=O)CC3)cc1C [Compound 65, N-(3,4-dimethylphenyl)-7-(isopropylamino)-2-oxo-1,2,3,4-tetrahydroquinoline-6-sulfonamide] | 0.32 | 106 | –
CCN(CC)c1cc2c(cc1S(=O)(=O)Nc1ccc(C)c(C)c1)CCC(=O)N2 [Compound 66, 7-(diethylamino)-N-(3,4-dimethylphenyl)-2-oxo-1,2,3,4-tetrahydroquinoline-6-sulfonamide] | 7.24 | 111 | –
Cc1ccc(NS(=O)(=O)c2cc3c(cc2NC(C)CO)NC(=O)CC3)cc1C (stereo not drawn) [Compound 67, N-(3,4-dimethylphenyl)-7-(1-hydroxypropan-2-ylamino)-2-oxo-1,2,3,4-tetrahydroquinoline-6-sulfonamide] | 0.11 | 110 | –

Further lines, with some results ahead:

AC50 ([1]; Table 4, read-out: AC50) [µM] | Emax ([1]; Table 4) [%] | SMILES | other results
0.09 | 131 | Cc1ccc(NS(=O)(=O)c2cc3c(cc2N[C@@H](C)CO)NC(=O)CC3)cc1C [Compound 68, (S)—N-(3,4-dimethylphenyl)-7-(1-hydroxypropan-2-ylamino)-2-oxo-1,2,3,4-tetrahydroquinoline-6-sulfonamide] | –
0.37 | 87.7 | Cc1ccc(NS(=O)(=O)c2cc3c(cc2N[C@H](C)CO)NC(=O)CC3)cc1C [Compound 69, (R)—N-(3,4-dimethylphenyl)-7-(1-hydroxypropan-2-ylamino)-2-oxo-1,2,3,4-tetrahydroquinoline-6-sulfonamide] | –
0.09 | 111 | Cc1ccc(NS(=O)(=O)c2cc3c(cc2NCCO)NC(=O)CC3)cc1C [Compound 70, N-(3,4-dimethylphenyl)-7-(2-hydroxyethylamino)-2-oxo-1,2,3,4-tetrahydroquinoline-6-su 1 fonamide] | –
0.08 | 124 | Cc1ccc(NS(=O)(=O)c2cc3c(cc2N[C@@H](C)CO)NC(=O)CC3)cc1Cl [Compound 71, (S)—N-(3-chloro-4-methylphenyl)-7-(l-hydroxypropan-2-ylamino)-2-oxo-1,2,3,4-tetrahydroquinoline-6-sulfonamide] | –
0.27 | 99 | Cc1cc(NS(=O)(=O)c2cc3c(cc2N[C@@H](C)CO)NC(=O)CC3)ccc1F [Compound 72, (S)—N-(4-fluoro-3-methylphenyl)-7-(1-hydroxypropan-2-ylamino)-2-oxo-1,2,3,4-tetrahydroquinoline-6-sulfonamide] | –
0.14 | 95 | C[C@@H](CO)Nc1cc2c(cc1S(=O)(=O)Nc1ccc(F)c(Cl)c1)CCC(=O)N2 [Compound 73, (S)—N-(3-chloro-4-fluorophenyl)-7-(1-hydroxypropan-2-ylamino)-2-oxo-1,2,3,4-tetrahydroquinoline-6-sulfonamide] | –
